According to US20220127297A1, “Novel Antibacterial 3"-Derivatives Of 4,6-Disubstituted 2,5-Dideoxystreptamine Aminoglycoside Antibiotics” (AGILeBiotics B.V., priority 2018, published 2022):
In brackets after ≈: the same amount, converted by molar mass. Like-named read-outs stand apart in the source and are kept apart here.

What was measured:
K. pneumoniae DSM 26371 = test: MIC 50, broth micro-dilution, DSM strains; assay type: cell-based, Klebsiella pneumoniae
Text: (§1) 3.2 Against Selected Bacteria of the ESKAPE Panel and Enterococcus faecalis (DSM Strains)
(§2) Tested reference compounds. Amikacin sulfate (Cat. No. 01693, Chem-Impex), Gentamicin sulfate (Cat. No. G4918, Sigma Aldrich).
(§3) Microbial strains. Enterococcus faecalis DSM 2570, Klebsiella pneumoniae DSM 26371, Acinetobacter baumannii DSM 105126, Enterobacter cloacae 3MRGN (clinical bronchial aspirate isolate).
(§4) Culture media and equipment. BBL™ Mueller Hinton Broth 2 (Lot. BCBW1143, Cat. No. 70192, Sigma); Trypcase Soy Blood-agar plates (Cat. No. 43001, Biomérieux); Cryoinstant (contains 15% glycerol; Cat. No. 822070ZA, VWR International); GasPak™ EZ Standard Incubation Container (Cat. No. 260671, Becton Dickinson); GasPak™ EZ Campy Container System Sachets (Cat. No. 260680, Becton Dickinson); 96-well deep well plate, 1 mL (Cat. No. 0030506.200, Eppendorf); Plate lid (Cat. No. 0030131.525, Eppendorf); 96-well plate, F-bottom (Cat. No. 260860, Nunc); Incubator (Sartorius Certomat BS-1); Laminar flow (Heraeus HS12); UV/VIS meter (Perkin Elmer Lambda Bio+); Platereader (Tecan Infinite M200 Pro).
(§5) Compound preparation. Compounds were prepared in MH2 media at a concentration of 5 mM and stored at 4° C. For testing, solutions of 128 μM were prepared in MH2, for tests against E. faecalis a solution of 512 μM was prepared. Out of these working solutions, 400 μL was transferred to wells in the first column of 96-well deep well plates. Each compound was transferred in triplicate. Plates were previously filled with 200 μL of MH2 media in all wells except for the wells in the first column. After compound and antibiotic addition, the compounds were serial two-fold diluted by transferring 200 μL from the first to the second column, then from the second to the third column and so on. Finally, 200 μL was removed from the last column.
(§6) Inoculum preparation. Microorganisms used were all revived from 15% glycerol storage in Croinstant tubes at −28° C. by plating them on blood agar plates. A. baumanni, and E. cloacae were grown aerobically at 37° C., E. faecalis was grown microaerophilically at 37° C., and K. pneumoniae was grown aerobically at 37° C. Plates were stored at 4° C. for up to two weeks, after which new plates were prepared from −28° C. A single colony was inoculated in MH2 media and grown at 37° C. and 200 rpm to an optical density (measured by UV/Vis spectroscopy) of 0.6-0.8 at 600 nm. Out of these suspensions, actual inoculums were prepared by diluting them to an optical density of 0.1 in MH2 media. From these inoculums, 200 μL was transferred to each well, resulting in a final compound concentration range of 64 μM-31.3 nM for, K. pneumoniae, A. baumanni, and E. cloacae, and 256 μM-125 nM for E. faecalis. Plates inoculated with E. faecalis were placed inside a GasPak™ Container System with GasPak™ Campy Container System sachets. All plates were incubated at 200 rpm for 18 h under the microorganism culturing conditions mentioned above.
(§7) MIC determination. After 18 h of growth, 200 μL was transferred to a 96-well F-bottom plate. The optical density was determined by a plate reader at 600 nm, with 10 s shaking before reading. Triplicate measurements were averaged, and a growth curve was plotted in Excel. The first column in which the growth reached half the value of maximum growth was determined as the MIC50 value for that particular compound.
(§8) MIC50. The MIC50 of a compound was assigned at which the bacterial growth reached half the value of maximum growth.

A. baumannii DSM 105126 = test: MIC 50, broth micro-dilution, DSM strains; assay type: cell-based, Acinetobacter baumannii
Text: as §1, §2, §3, §4, §5, §6, §7, §8

[1] = Klebsiella pneumoniae, DSM26371, K. pneumoniae DSM 26371, read-out: MIC 50
[2] = Acinetobacter baumannii, DSM105126, read-out: MIC 50

Structure (SMILES) | MIC50 (K. pneumoniae DSM 26371; [1]) | MIC50 (A. baumannii DSM 105126; [2]) | MIC50 (K. pneumoniae DSM 26371; K. pneumoniae DSM 26371) | MIC50 (A. baumannii DSM 105126)
N=C(NCC1CCCO1)NC1[C@@H](O)C(OC2[C@@H](F)[C@H](O[C@H]3OC(CN)[C@@H](O)CC3N)C(N)C[C@H]2NC(=O)[C@@H](O)CCN)O[C@H](CO)[C@H]1O (some centres unmarked) [ABX5046, Tobra-AHB-F-Gua tetrahydrofuran-2-yl methyl] | 0.5 µM (≈ 0.348 µg/mL) | 0.25 µM (≈ 0.174 µg/mL) |  | 
N=C(NC[C@@H]1CNCCO1)NC1[C@@H](O)C(OC2[C@@H](F)[C@H](O[C@H]3OC(CN)[C@@H](O)CC3N)C(N)C[C@H]2NC(=O)[C@@H](O)CCN)O[C@H](CO)[C@H]1O (stereo partly drawn) [ABX5040, Tobra-AHB-F-Gua (S) morpholin-2-yl methyl] | 0.5 µM (≈ 0.356 µg/mL) | 0.0625 to 0.125 µM (≈ 0.0445 to 0.089 µg/mL) |  | 
N=C(N)N[C@@H]1[C@@H](O)[C@@H](O[C@@H]2[C@@H](O)[C@H](O[C@H]3O[C@H](CN)[C@@H](O)[C@@H](O)[C@H]3N)[C@@H](N)C[C@H]2NC(=O)[C@@H](O)CCN)O[C@H](CO)[C@H]1O [ABX4005, 3′Epi-KanaB-AHB-Gua] |  |  | 1 to 2 µM | 0.5 µM (≈ 0.313 µg/mL)
NCCC(O)C(=O)NC1CC(N)C(OC2OC(CN)C(O)C(O)C2N)C(O)C1OC1OC(CO)C(O)C(N)C1O (centres unmarked) [ABX4001, KanaB-AHB] |  |  | 0.5 µM (≈ 0.292 µg/mL) | 0.5 µM (≈ 0.292 µg/mL)
N=C(NCc1cnc[nH]1)NC1[C@@H](O)C(OC2[C@@H](F)[C@H](O[C@H]3OC(CN)[C@@H](O)CC3N)C(N)C[C@H]2NC(=O)[C@@H](O)CCN)O[C@H](CO)[C@H]1O (some centres unmarked) [ABX5050, Tobra-AHB-F-Gua imidazol-5-yl methyl] | 0.5 µM (≈ 0.346 µg/mL) | 0.5 µM (≈ 0.346 µg/mL) |  | 
N=C(NCCCO)NC1[C@@H](O)C(OC2[C@@H](F)[C@H](O[C@H]3OC(CN)[C@@H](O)CC3N)C(N)C[C@H]2NC(=O)[C@@H](O)CCN)O[C@H](CO)[C@H]1O (some centres unmarked) [ABX5041, Tobra-AHB-F-Gua 3-hydroxy-propyl] | 0.5 µM (≈ 0.335 µg/mL) | 0.25 µM (≈ 0.168 µg/mL) |  | 
N=C(N)NC1[C@@H](O)C(OC2[C@@H](F)[C@H](O[C@H]3OC(CN)[C@@H](O)[C@H](O)C3O)C(N)C[C@H]2NC(=O)[C@@H](O)CCN)O[C@H](CO)[C@H]1O (stereo partly drawn) [ABX3003, 3′epi-KanaA-AHB-F-Gua] | 0.5 µM (≈ 0.315 µg/mL) | 0.0625 to 0.125 µM (≈ 0.0394 to 0.0787 µg/mL) |  | 
NCC[C@H](O)C(=O)N[C@@H]1CC(N)[C@@H](O[C@H]2OC(CN)[C@@H](O)[C@@H](O)C2N)[C@H](F)C1OC1O[C@H](CO)[C@@H](O)C(N)[C@H]1O (stereo partly drawn) [ABX4003, 3′Epi-KanaB-AHB-F] |  |  | 0.5 µM (≈ 0.293 µg/mL) | 0.5 µM (≈ 0.293 µg/mL)
N=C(NCCCN)NC1[C@@H](O)C(OC2[C@@H](F)[C@H](O[C@H]3OC(CN)[C@@H](O)CC3N)C(N)C[C@H]2NC(=O)[C@@H](O)CCN)O[C@H](CO)[C@H]1O (some centres unmarked) [ABX5030, Tobra-AHB-F-Gua-3-amino-propyl] | 0.125 µM (≈ 0.0837 µg/mL) | 0.0312 to 0.0625 µM (≈ 0.0209 to 0.0419 µg/mL) |  | 
N=C(N)NC1C(O)[C@@H](CO)OC(OC2C(F)[C@H](O[C@H]3OC(CN)[C@@H](O)CC3N)C(N)C[C@H]2NC(=O)[C@@H](O)CCN)[C@@H]1O (some centres unmarked) [ABX5006, Tobra-AHB-F-Gua] | < 0.25 µM | 0.0625 µM (≈ 0.0383 µg/mL) |  | 
N=C(NCCN)NC1C(O)[C@@H](CO)OC(OC2C(F)[C@H](O[C@H]3OC(CN)[C@@H](O)CC3N)C(N)C[C@H]2NC(=O)[C@@H](O)CCN)[C@@H]1O (some centres unmarked) [ABX5020, Tobra-AHB-F-Gua-2-amino-ethyl] | 0.5 µM (≈ 0.328 µg/mL) | 0.0625 to 0.125 µM (≈ 0.041 to 0.082 µg/mL) |  | 
N=C(N)NC1[C@@H](O)C(OC2[C@@H](O)[C@H](O[C@H]3OC(CN)[C@@H](O)CC3N)C(N)C[C@H]2NC(=O)[C@@H](O)CCN)O[C@H](CO)[C@H]1O (some centres unmarked) [ABX5005, Tobra-AHB-Gua] |  |  | 0.25 µM (≈ 0.153 µg/mL) | 0.25 µM (≈ 0.153 µg/mL)
NCCC(O)C(=O)NC1CC(N)C(OC2OC(CN)C(O)C(O)C2O)C(F)C1OC1OC(CO)C(O)C(N)C1O (stereo not drawn) [ABX3005, 3′Epi-KanaA-AHB-F] |  |  | 1 µM (≈ 0.588 µg/mL) | 1 µM (≈ 0.588 µg/mL)
